In patent publication US20250134952A1, “METHODS FOR IMPROVING THE EFFICACY OF HDAC INHIBITOR THERAPY AND PREDICTING THE RESPONSE TO TREATMENT WITH HDAC INHIBITOR” (INSTITUT NATIONAL DE LA SANTÉ ET DE LA RECHERCHE MÉDICALE, priority 2021, published 2025):

Tests used:
[1] = system: GAL4UAS responsive luciferase reporter Hela stable cell line; test: GAL4UAS responsive luciferase reporter assay; assay type: cell-based; settings: for reduction of luciferase activity by Tau4R overexpression: wild-type Tau4R transfected
Procedure: (§1) (A) Representative confocal sections of MCF7shctrl and shTau cells untreated or treated with 100 nM TSA for 24 h. […] (B) Quantification of HP1α clusters per nuclei visualized as described previously and realized on three independent experiments. (C) GADD45a and (D) p21 (CDKN1a) expression in MCF7shctrl and shTau cells untreated or treated with 100 nM TSA for 24 h were analyzed by real-time PCR and normalized to RPLO. Results are expressed, relative to the basal activity set to 1, as the mean±SD of three independent assays. (E) Tau tethering prevents adjacent reporter gene activity induced by TSA. GAL4UAS responsive luciferase reporter Hela stable cell line was transfected with GAL4DBD (GAL4) or GAL4DBD-Tau4R and then, 24 h later, treated with TSA (600 nM) for 24 h. The luciferase activity was determined as described in the Materials and Methods. (F) Ectopic Tau4R expression prevents adjacent reporter gene activity induced by TSA. The GAL4UAS responsive luciferase reporter Hela stable cell line was transfected with a plasmid encoding Tau4R for 24 h. Then, cells were treated with an increasing concentration of TSA, as indicated for 24 h. The luciferase activity was determined as described in the Materials and Methods. Data are mean±SD **P<0.01***P<0.001 vs. control.
SH-SY5Y human neuroblastoma cells expressing Tau4R tagged with the streptavidin-binding peptide (SBP) (referred as SH-SY5Y-(SBP)Tau4R) (Chauderlier et al., 2018), SH-SY5Y-Tet-on-Tau4R, Hela cells, MCF7 and MDA-MB-231 were cultured in Dulbecco's Modified Eagle's Medium with 10% fetal bovine serum, 2 mM L-glutamine and 50 U/ml penicillin/streptomycin (Gibco) at 37° C. in 5% CO2 humidified air. Transient and stable transfections experiments were performed using the lipofectamine 3000 reagent (Invitrogen). Transient luciferase assays were performed with the dual-luciferase assay system (Promega). For stable clones, luciferase activities were measured using the luciferase assay system (Promega) and normalized against protein concentration. To isolate stably transfected clones, Hela cells were transfected with the pGL4.31[luc2P/GAL4 UAS/Hygro](referred to as the GAL4UAS stable Hela cell line) and selected with hygromycin (200 μg/ml). Of 6 clones tested for reporter activity, one clone was chosen for further studies. MCF7 and MDA-MB-231 cells were transfected with short hairpin Tau or RNA Ctrl vectors and selected with puromycin ([…]). Clones were isolated and tested for Tau expression.
To directly probe how Tau prevents TSA-induced chromatin remodeling and gene expression, we next used Hela cells as they lack endogenous Tau. First, we generated a stable GAL4UAS-responsive luciferase reporter Hela clone that we subsequently selected for trichostatin-induced luciferase activity. In our preliminary experiments we found the lowest dose of TSA inducing maximal luciferase activity was 600 nM and we used this concentration in the following experiments. In addition, by performing salt extraction on nuclei, we found only Tau4R isoforms were tightly bound to chromatin and could potentially impact directly on chromatin structure (data not shown). We therefore targeted Tau4R to UAS responsive elements by fusing Tau4R to the heterologous DNA-binding domain GAL4 and transfected this plasmid into Hela stable clone. […] We next wondered if this effect was due to the tethering of Tau4R to the promoter or whether this was independent of Tau4R fusion to GAL4. […]

p21 (CDKN1a) = p21 (CDKN1a) expression by real-time PCR; assay type: cell-based, human; settings: 100 nM TSA, 24 h
Procedure: as §1, with “The GAL4UAS responsive luciferase reporter Hela stable cell line was transfected with a plasmid encoding Tau4R for 24 h. Then, cells were treated with an increasing concentration of TSA, as indicated for 24 h.” left out, “Data are mean±SD **P<0.01***P<0.001 vs. control.” left out
(§2) Total RNA was prepared using RNeasyMinikit (Qiagen). Reverse transcription (RT) was performed using random hexamers as recommended by the manufacturer (Applied Biosystems). cDNAs were analyzed by PCR amplification using the TaqMan PCR master mix (Applied Biosystems) and a mix of RPLO primers and probes. […]

GADD45a = GADD45a expression by real-time PCR; assay type: cell-based, human; settings: 100 nM TSA, 24 h
Procedure: as §1, with “The GAL4UAS responsive luciferase reporter Hela stable cell line was transfected with a plasmid encoding Tau4R for 24 h. Then, cells were treated with an increasing concentration of TSA, as indicated for 24 h.” left out, “Data are mean±SD **P<0.01***P<0.001 vs. control.” left out
as §2

[2] = system: MCF7shctrl and MCF7shTau subclones; test: Apoptosis by flow cytometry of PI-positive and Annexin-V-positive cells; assay type: cell-based, human; settings: 100 nM TSA, 48 h
Procedure: FIG. 1: Tau inhibition increases MCF7 breast cancer cell line sensitivity to TSA. (A) Tau protein expression in MCF7, MCF7shctrl and shTau were quantify by Elisa. (B) Effect of 100 nM TSA (48 h) on cell death in the MCF7shctrl and MCF7shTau subclones. Cell death was determined by staining and flow cytometric analysis as described in the materials and methods. (C) Effect of 100 nM TSA (48 h) on apoptosis in the MCF7shctrl and MCF7shTau subclones. Apoptosis was determined by flow cytometric analysis of the PI-positive and Annexin-V-positive cells as described in the materials and methods. (D) Cell cycle distribution was determined by FACS analysis of combined propidium iodide and EdU staining in MCF7shctrl and MCF7shTau in the absence or presence 100 nM TSA, 48 h. Data are mean±SD **P<0.01***P<0.001. […]
SH-SY5Y human neuroblastoma cells expressing Tau4R tagged with the streptavidin-binding peptide (SBP) (referred as SH-SY5Y-(SBP)Tau4R) (Chauderlier et al., 2018), SH-SY5Y-Tet-on-Tau4R, Hela cells, MCF7 and MDA-MB-231 were cultured in Dulbecco's Modified Eagle's Medium with 10% fetal bovine serum, 2 mM L-glutamine and 50 U/ml penicillin/streptomycin (Gibco) at 37° C. in 5% CO2 humidified air. […] For stable clones, luciferase activities were measured using the luciferase assay system (Promega) and normalized against protein concentration. […]

[3] = MCF7shctrl cells, relative to basal
[4] = cells with reduced Tau expression (MCF7shTau) vs MCF7shctrl

CC(/C=C/C(=O)NO)=C\[C@@H](C)C(=O)c1ccc(N(C)C)cc1 [TSA, 2,4-Heptadienamide, 7-[4-(dimethylamino)phenyl]-N-hydroxy-4,6-dimethyl-7-oxo-, (2E,4E,6R)-]
reduction of luciferase activity by Tau4R overexpression ([1]; 100 nM TSA, 24 h): around 50%
reduction of luciferase activity by Tau4R overexpression ([1]; 300 nM TSA, 24 h): around 50%
reduction of luciferase activity by Tau4R overexpression ([1]; 600 nM TSA, 24 h): no reduction
reduction of TSA-induced luciferase activity in the presence of GAL-Tau4R ([1]; TSA 600 nM, 24 h, GAL4DBD-Tau4R transfected): 50%
lowest dose of TSA inducing maximal luciferase activity ([1]; preliminary experiments, Hela stable clone): 600 nM
p21 induction (RT-qPCR) (p21 (CDKN1a); [3]): 2.5 fold
p21 upregulation by TSA (p21 (CDKN1a); [4]): exacerbated
GADD45a induction (RT-qPCR) (GADD45a; [3]): 3 fold
GADD45a upregulation by TSA (GADD45a; [4]): exacerbated
apoptosis ([2]; Tau-knockdown cells (MCF7shTau)): 48%
apoptosis ([2]; sh-ctrl cells (MCF7shctrl)): 30%
